From patent US11684589B2, “Pharmaceutical compositions for use in the therapy of blepharitis” (NOVALIQ GMBH, priority 2016, dated 2023)

Legend:
Assay type in all cases: in vivo, patients
anterior blepharitis = assay: Assessment of anterior blepharitis severity in observational patient study; conditions: for Anterior blepharitis shift table, changes from baseline for both eyes: 7 weeks
Protocol: (§1) A prospective, uncontrolled, open-label, multi-center observational study was conducted with a total of 72 (53 female, 19 male) patients included, with 1 to 20 patients per site. Two patients were lost for follow-up during the study. Patients to be included had to fulfill following criteria: • Males or females≥18 years of age; • Patients with symptoms as determined by • Tear Film Break-Up Time (TFBUT)≤10 s • Ocular Surface Disease Index≥16 and ≤55 • Schirmer I Test≥2 mm (recorded within 5 min) • Sum of peripheral corneal and conjunctival staining grade≤10 (Oxford) • Altered secretion and expressibility of the meibomian glands. Among those, patients fulfilling the following criteria were not included in the study: • Known hypersensitivity to any of the components of NovaTears®; • Contact lens wear, pregnancy, or breast feeding; • Presence of dry eye disease (DED) caused by any other known underlying systemic disease; • Planned ophthalmologic surgical procedure during the course of the study; • Use of lipid-containing or tear-film stabilizing eye drops/sprays except cyclosporin formulations. Patients selected as described above were administered 1-perfluorohexyloctane (F6H8) eye drops, manufactured under the tradename “NovaTears®” (Novaliq GmbH, Heidelberg, Germany) for a period of 7 weeks. Said formulation consists essentially of 1-perfluorohexyloctane (F6H8), it is water-free and contains no additional preservatives or ingredients. A dose of 3 to 4 droplets (corresponding to 40 μl, 10 μl per drop) per eye and day were administered topically to the eye, with 1 droplet being administered as a single dose. NovaTears® single droplets were administered directly to the surface of the eye into a pocket that was formed by gently pulling down the lower eyelid. Assessment of the eyes treated was performed once before the start of NovaTears® administration (baseline) and once after 7 weeks of treatment (follow-up). Anterior blepharitis involves inflammation of the lid margin anterior to the gray line and is usually concentrated around the eyelashes and follicles. Posterior blepharitis involves inflammation of the posterior lid margin. The severity of anterior and posterior blepharitis was rated separately for each eye by selecting one of the following ratings: “none”, “+”, “++”, “+++” (with “+++” indicating most severe blepharitis anterior or posterior).

posterior blepharitis = assay: Assessment of posterior blepharitis severity in observational patient study; conditions: for Posterior blepharitis shift table, changes from baseline for both eyes: 7 weeks
Protocol: as §1

[1] = system: abnormal lid margin features; assay: Lid margin assessment (abnormal lid margin features) in observational patient study
Protocol: A prospective, uncontrolled, open-label, multi-center observational study was conducted with a total of 72 (53 female, 19 male) patients included, with 1 to 20 patients per site. Two patients were lost for follow-up during the study. Patients to be included had to fulfill following criteria: • Males or females≥18 years of age; • Patients with symptoms as determined by • Tear Film Break-Up Time (TFBUT)≤10 s • Ocular Surface Disease Index≥16 and ≤55 • Schirmer I Test≥2 mm (recorded within 5 min) • Sum of peripheral corneal and conjunctival staining grade≤10 (Oxford) • Altered secretion and expressibility of the meibomian glands.
Among those, patients fulfilling the following criteria were not included in the study: • Known hypersensitivity to any of the components of NovaTears®; • Contact lens wear, pregnancy, or breast feeding; • Presence of dry eye disease (DED) caused by any other known underlying systemic disease; • Planned ophthalmologic surgical procedure during the course of the study; • Use of lipid-containing or tear-film stabilizing eye drops/sprays except cyclosporin formulations.
Patients selected as described above were administered 1-perfluorohexyloctane (F6H8) eye drops, manufactured under the tradename “NovaTears®” (Novaliq GmbH, Heidelberg, Germany) for a period of 7 weeks. Said formulation consists essentially of 1-perfluorohexyloctane (F6H8), it is water-free and contains no additional preservatives or ingredients. A dose of 3 to 4 droplets (corresponding to 40 μl, 10 μl per drop) per eye and day were administered topically to the eye, with 1 droplet being administered as a single dose. NovaTears® single droplets were administered directly to the surface of the eye into a pocket that was formed by gently pulling down the lower eyelid. Assessment of the eyes treated was performed once before the start of NovaTears® administration (baseline) and once after 7 weeks of treatment (follow-up).
Lid Margin Assessment As a further parameter abnormal lid margin features, such as teleangiectasia, plugging and lid swelling were assessed in the study. Assessment was performed for each eye separately.

[2] = 7 weeks of treatment, 3 to 4 droplets per eye and day, including patients with scores ++ and +

CCCCCCCCC(F)(F)C(F)(F)C(F)(F)C(F)(F)C(F)(F)C(F)(F)F [1-perfluorohexyloctane]
Severity of anterior blepharitis after treatment (anterior blepharitis; [2]): decreased for all patients
Anterior blepharitis shift table, changes from baseline for both eyes (anterior blepharitis; baseline +++, follow-up +++): 0 eyes
Anterior blepharitis shift table, changes from baseline for both eyes (anterior blepharitis; baseline +++, follow-up ++): 0 eyes
Anterior blepharitis shift table, changes from baseline for both eyes (anterior blepharitis; baseline +++, follow-up +): 0 eyes
Anterior blepharitis shift table, changes from baseline for both eyes (anterior blepharitis; baseline +++, follow-up none): 0 eyes
Anterior blepharitis shift table, changes from baseline for both eyes (anterior blepharitis; baseline ++, follow-up +++): 0 eyes
Anterior blepharitis shift table, changes from baseline for both eyes (anterior blepharitis; baseline ++, follow-up ++): 4 eyes
Anterior blepharitis shift table, changes from baseline for both eyes (anterior blepharitis; baseline ++, follow-up +): 7 eyes
Anterior blepharitis shift table, changes from baseline for both eyes (anterior blepharitis; baseline ++, follow-up none): 4 eyes
Anterior blepharitis shift table, changes from baseline for both eyes (anterior blepharitis; baseline +, follow-up +++): 0 eyes
Anterior blepharitis shift table, changes from baseline for both eyes (anterior blepharitis; baseline +, follow-up ++): 1 eyes
Anterior blepharitis shift table, changes from baseline for both eyes (anterior blepharitis; baseline +, follow-up +): 20 eyes
Anterior blepharitis shift table, changes from baseline for both eyes (anterior blepharitis; baseline +, follow-up none): 38 eyes
Anterior blepharitis shift table, changes from baseline for both eyes (anterior blepharitis; baseline none, follow-up +++): 0 eyes
Anterior blepharitis shift table, changes from baseline for both eyes (anterior blepharitis; baseline none, follow-up ++): 2 eyes
Anterior blepharitis shift table, changes from baseline for both eyes (anterior blepharitis; baseline none, follow-up +): 15 eyes
Anterior blepharitis shift table, changes from baseline for both eyes (anterior blepharitis; baseline none, follow-up none): 31 eyes
Assessment of anterior blepharitis, grade +++ (anterior blepharitis; follow-up after 7 weeks of treatment, 122 eyes from 61 patients, baseline 0): 0 eyes
Assessment of anterior blepharitis, grade ++ (anterior blepharitis; follow-up after 7 weeks of treatment, 122 eyes from 61 patients, baseline 15): 7 eyes
Assessment of anterior blepharitis, grade none (anterior blepharitis; follow-up after 7 weeks of treatment, 122 eyes from 61 patients, baseline 48): 73 eyes
Assessment of anterior blepharitis, grade + (anterior blepharitis; follow-up after 7 weeks of treatment, 122 eyes from 61 patients, baseline 59): 42 eyes
Severity of posterior blepharitis after treatment (posterior blepharitis; [2]): decreased for all patients
Posterior blepharitis shift table, changes from baseline for both eyes (posterior blepharitis; baseline 0 (none), follow-up 0 (none)): 26 eyes
Posterior blepharitis shift table, changes from baseline for both eyes (posterior blepharitis; baseline 0 (none), follow-up +++): 0 eyes
Posterior blepharitis shift table, changes from baseline for both eyes (posterior blepharitis; baseline 0 (none), follow-up ++): 0 eyes
Posterior blepharitis shift table, changes from baseline for both eyes (posterior blepharitis; baseline 0 (none), follow-up +): 5 eyes
Posterior blepharitis shift table, changes from baseline for both eyes (posterior blepharitis; baseline +++, follow-up 0 (none)): 4 eyes
Posterior blepharitis shift table, changes from baseline for both eyes (posterior blepharitis; baseline +++, follow-up +++): 0 eyes
Posterior blepharitis shift table, changes from baseline for both eyes (posterior blepharitis; baseline +++, follow-up ++): 0 eyes
Posterior blepharitis shift table, changes from baseline for both eyes (posterior blepharitis; baseline +++, follow-up +): 2 eyes
Posterior blepharitis shift table, changes from baseline for both eyes (posterior blepharitis; baseline ++, follow-up 0 (none)): 10 eyes
Posterior blepharitis shift table, changes from baseline for both eyes (posterior blepharitis; baseline ++, follow-up +++): 0 eyes
Posterior blepharitis shift table, changes from baseline for both eyes (posterior blepharitis; baseline ++, follow-up ++): 8 eyes
Posterior blepharitis shift table, changes from baseline for both eyes (posterior blepharitis; baseline ++, follow-up +): 14 eyes
Posterior blepharitis shift table, changes from baseline for both eyes (posterior blepharitis; baseline +, follow-up 0 (none)): 20 eyes
Posterior blepharitis shift table, changes from baseline for both eyes (posterior blepharitis; baseline +, follow-up +++): 0 eyes
Posterior blepharitis shift table, changes from baseline for both eyes (posterior blepharitis; baseline +, follow-up ++): 3 eyes
Posterior blepharitis shift table, changes from baseline for both eyes (posterior blepharitis; baseline +, follow-up +): 30 eyes
Assessment of posterior blepharitis, grade +++ (posterior blepharitis; follow-up after 7 weeks of treatment, 122 eyes from 61 patients, baseline 6): 0 eyes
Assessment of posterior blepharitis, grade none (posterior blepharitis; follow-up after 7 weeks of treatment, 122 eyes from 61 patients, baseline 31): 60 eyes
Assessment of posterior blepharitis, grade ++ (posterior blepharitis; follow-up after 7 weeks of treatment, 122 eyes from 61 patients, baseline 32): 11 eyes
Assessment of posterior blepharitis, grade + (posterior blepharitis; follow-up after 7 weeks of treatment, 122 eyes from 61 patients, baseline 53): 51 eyes
Reduction in the severity of posterior blepharitis after treatment (posterior blepharitis; patients with the most severe posterior blepharitis rated +++): most significant reduction
Abnormal lid margin features (teleangiectasia, plugging, lid swelling) after treatment ([1]; 7 weeks of treatment): significantly reduced
Assessment of lid margin, Lid Swelling ([1]; follow-up after 7 weeks of treatment, assessed for each eye separately, baseline 30): 20
Assessment of lid margin, Teleangiectasia ([1]; follow-up after 7 weeks of treatment, assessed for each eye separately, baseline 74): 49
Assessment of lid margin, Plugging ([1]; follow-up after 7 weeks of treatment, assessed for each eye separately, baseline 90): 59
